Results: ChEMBL document CHEMBL3792335, “L-Aspartic and l-glutamic acid ester-based ProTides of anticancer nucleosides: Synthesis and antitumoral evaluation” (Bioorg Med Chem Lett, 2016)

Assays:
[1] = system: Jurkat; assay: Cytotoxicity against human Jurkat cells assessed as reduction in cell viability after 72 hrs by MTS assay; type: functional, cell-based
[2] = system: A549; assay: Cytotoxicity against human A549 cells assessed as reduction in cell viability after 72 hrs by MTS assay; type: functional, cell-based; settings: A549, 72 h
[3] = Cytotoxicity against human PC3 cells assessed as reduction in cell viability after 72 hrs by MTS assay; type: functional, cell-based; settings: PC-3, 72 h
[4] = system: Ramos; assay: Cytotoxicity against human Ramos cells assessed as reduction in cell viability after 72 hrs by MTS assay; type: functional, cell-based
[5] = Cytotoxicity against human U87 cells assessed as reduction in cell viability after 72 hrs by MTS assay; type: functional, cell-based, U-87MG ATCC; settings: U-87 MG

Structure (SMILES) | EC50 [1] [µM] | EC50 [2] [µM] | EC50 [3] [µM] | EC50 [4] [nM] | EC50 [5] [µM]
CC(C)CCOC(=O)C[C@H](NP(=O)(OC[C@H]1O[C@@H](n2ccc(N)nc2=O)C(F)(F)[C@@H]1O)Oc1ccccc1)C(=O)OCCC(C)C (stereo not given in full) | 0.294 | > 100 | 3.5 | 294 | 43.3
Nc1ccn([C@@H]2O[C@H](CO)[C@@H](O)C2(F)F)c(=O)n1 [GEMCITABINE] | 0.023 | > 100 | 0.065 | 0.03 | > 100
CC(C)CCOC(=O)C[C@H](NP(=O)(OC[C@H]1O[C@@H](n2cc(/C=C/Br)c(=O)[nH]c2=O)C[C@@H]1O)Oc1ccccc1)C(=O)OCCC(C)C (stereo not given in full) | 5.2 | 9.9 | 12.5 | 6300 | 12.8
O=c1[nH]c(=O)n([C@H]2C[C@H](O)[C@@H](CO)O2)cc1I [IDOXURIDINE] | 79.7 | > 100 | > 100 | 47900 | > 100
CC(C)CCOC(=O)CC[C@H](NP(=O)(OC[C@H]1O[C@@H](n2ccc(N)nc2=O)C(F)(F)[C@@H]1O)Oc1ccccc1)C(=O)OCCC(C)C (stereo not given in full) | 1.2 | > 100 | 10.9 | 1200 | > 100
CC(C)CCOC(=O)C[C@H](NP(=O)(OC[C@H]1O[C@@H](n2cc(F)c(=O)[nH]c2=O)C[C@@H]1O)Oc1ccccc1)C(=O)OCCC(C)C (stereo not given in full) | 1.1 | 43.4 | 22.7 | 724 | 10.1
O=c1[nH]c(=O)n([C@H]2C[C@H](O)[C@@H](CO)O2)cc1F [FLOXURIDINE] | 0.00333 | 60.8 | 86.9 | 7.51 | 18.2
CCOC(=O)CC[C@H](NP(=O)(OC[C@H]1O[C@@H](n2ccc(N)nc2=O)C(F)(F)[C@@H]1O)Oc1ccccc1)C(=O)OCC (stereo not given in full) | 0.129 | > 100 | 2.3 | 365 | > 100
CC(C)CCOC(=O)[C@H](CC(=O)OCc1ccccc1)NP(=O)(OC[C@H]1O[C@@H](n2ccc(N)nc2=O)C(F)(F)[C@@H]1O)Oc1ccccc1 (stereo not given in full) | 0.209 | > 100 | 3.8 | 700 | 43.7
CC(C)CCOC(=O)C[C@H](NP(=O)(OC[C@H]1O[C@@H](n2cc(I)c(=O)[nH]c2=O)C[C@@H]1O)Oc1ccccc1)C(=O)OCCC(C)C (stereo not given in full) | 14.7 | 27 | 33.3 | 13600 | 38
O=c1[nH]c(=O)n([C@H]2C[C@H](O)[C@@H](CO)O2)cc1/C=C/Br [BRIVUDINE] | > 100 | > 100 | > 100 | > 100000 | > 100
CC(C)CCOC(=O)C[C@H](NP(=O)(OC[C@H]1O[C@@H](n2ccc(N)nc2=O)C(F)(F)[C@@H]1O)Oc1ccccc1)C(=O)OCc1ccccc1 (stereo not given in full) | 0.21 | > 100 | 3.6 | 813 | > 100
